Measured values taken from paper PMC10004634 (PLOS ONE, 2023).
Read-outs that look alike come from different tables or passages of the source.

What was measured:
Test in all cases: biochemical
Design in all cases: KINOMEscan scanMAX competition binding, DNA-tagged kinases, qPCR read-out, percent control at 300 nM
FLT3(R834Q) = target: T1, FLT3(R834Q) (Homo sapiens, UniProt P36888, R834Q)
T1 sequence (P36888 1-993 R834Q): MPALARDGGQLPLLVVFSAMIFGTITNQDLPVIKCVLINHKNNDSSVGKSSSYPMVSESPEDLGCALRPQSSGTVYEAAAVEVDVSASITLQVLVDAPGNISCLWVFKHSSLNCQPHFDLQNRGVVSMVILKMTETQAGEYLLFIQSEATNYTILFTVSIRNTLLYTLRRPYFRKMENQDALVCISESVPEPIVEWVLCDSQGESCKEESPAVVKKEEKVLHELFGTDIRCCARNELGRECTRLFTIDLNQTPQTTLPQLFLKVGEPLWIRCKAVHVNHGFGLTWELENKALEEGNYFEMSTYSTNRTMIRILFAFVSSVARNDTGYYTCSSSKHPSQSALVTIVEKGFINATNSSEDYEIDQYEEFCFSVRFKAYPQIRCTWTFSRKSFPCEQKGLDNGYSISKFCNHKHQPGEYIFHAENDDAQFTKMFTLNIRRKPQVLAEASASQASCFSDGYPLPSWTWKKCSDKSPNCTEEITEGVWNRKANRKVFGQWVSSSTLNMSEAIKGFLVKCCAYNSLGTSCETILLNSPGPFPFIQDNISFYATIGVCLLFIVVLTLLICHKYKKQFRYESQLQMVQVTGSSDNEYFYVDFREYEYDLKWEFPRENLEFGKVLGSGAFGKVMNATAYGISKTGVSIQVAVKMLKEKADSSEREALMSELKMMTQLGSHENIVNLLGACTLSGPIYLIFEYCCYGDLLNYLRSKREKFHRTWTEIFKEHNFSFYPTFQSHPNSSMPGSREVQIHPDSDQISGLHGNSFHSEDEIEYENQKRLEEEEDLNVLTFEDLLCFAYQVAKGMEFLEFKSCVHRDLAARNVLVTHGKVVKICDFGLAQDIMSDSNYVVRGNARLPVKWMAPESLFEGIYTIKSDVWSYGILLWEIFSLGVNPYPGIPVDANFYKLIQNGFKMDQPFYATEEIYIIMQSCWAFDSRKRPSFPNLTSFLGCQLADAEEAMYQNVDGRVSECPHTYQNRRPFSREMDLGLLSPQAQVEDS

IRAK3 = target: T2, IRAK3 (Homo sapiens, UniProt Q9Y616)
T2 sequence (Q9Y616 1-596): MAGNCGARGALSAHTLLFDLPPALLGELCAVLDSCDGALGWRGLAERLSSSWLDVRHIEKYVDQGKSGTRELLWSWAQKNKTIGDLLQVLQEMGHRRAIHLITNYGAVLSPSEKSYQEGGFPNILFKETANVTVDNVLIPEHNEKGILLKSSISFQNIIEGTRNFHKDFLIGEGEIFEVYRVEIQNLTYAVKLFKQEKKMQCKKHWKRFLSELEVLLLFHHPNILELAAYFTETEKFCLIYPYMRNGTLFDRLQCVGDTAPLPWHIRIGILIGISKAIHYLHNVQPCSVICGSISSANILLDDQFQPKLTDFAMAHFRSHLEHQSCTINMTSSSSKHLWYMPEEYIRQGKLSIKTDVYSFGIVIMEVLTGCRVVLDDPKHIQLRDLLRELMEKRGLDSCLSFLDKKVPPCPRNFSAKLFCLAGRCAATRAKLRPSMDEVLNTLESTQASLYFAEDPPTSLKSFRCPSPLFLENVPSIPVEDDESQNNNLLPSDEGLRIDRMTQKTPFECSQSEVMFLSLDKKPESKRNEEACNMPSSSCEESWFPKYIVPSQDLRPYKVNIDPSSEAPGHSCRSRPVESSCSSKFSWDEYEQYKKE

JNK1 = target: T3, JNK1 (Homo sapiens, UniProt P45983)
T3 construct: gene MAPK8

PHKG1 = PHKG1 (Homo sapiens, UniProt Q16816)
MLCK = target: T4, MLCK (Homo sapiens, UniProt Q32MK0)
T4 construct: gene MYLK3
T4 sequence (Q32MK0 1-819): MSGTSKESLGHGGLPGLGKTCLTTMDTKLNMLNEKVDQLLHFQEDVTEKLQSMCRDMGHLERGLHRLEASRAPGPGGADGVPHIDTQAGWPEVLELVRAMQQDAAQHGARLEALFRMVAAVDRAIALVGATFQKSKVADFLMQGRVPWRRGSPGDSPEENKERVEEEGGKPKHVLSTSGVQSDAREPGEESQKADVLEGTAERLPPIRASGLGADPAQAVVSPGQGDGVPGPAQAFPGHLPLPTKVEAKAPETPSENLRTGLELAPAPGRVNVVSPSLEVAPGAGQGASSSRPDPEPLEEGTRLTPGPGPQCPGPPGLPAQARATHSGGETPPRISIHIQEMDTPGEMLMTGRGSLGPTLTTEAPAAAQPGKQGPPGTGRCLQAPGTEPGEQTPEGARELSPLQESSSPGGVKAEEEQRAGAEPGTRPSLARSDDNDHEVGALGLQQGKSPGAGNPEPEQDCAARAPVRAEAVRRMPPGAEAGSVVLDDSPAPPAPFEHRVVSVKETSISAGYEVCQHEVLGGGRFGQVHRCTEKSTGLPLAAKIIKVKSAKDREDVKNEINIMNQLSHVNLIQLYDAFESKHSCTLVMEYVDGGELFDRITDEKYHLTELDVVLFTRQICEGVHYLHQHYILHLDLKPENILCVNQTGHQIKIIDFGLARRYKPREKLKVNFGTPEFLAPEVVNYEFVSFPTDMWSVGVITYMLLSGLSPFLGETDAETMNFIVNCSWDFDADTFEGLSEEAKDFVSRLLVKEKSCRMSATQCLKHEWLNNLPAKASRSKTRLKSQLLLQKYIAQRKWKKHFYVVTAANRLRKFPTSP

MEK1 = target: T5, MEK1 (Homo sapiens, UniProt Q02750)
T5 construct: gene MAP2K1

[1] = read-out: Percent control / Tirabrutinib
[2] = read-out: Percent control / Ibrutinib
[3] = read-out: Percent control / Zanubrutinib
[4] = read-out: Percent control / Acalabrutinib

PHKG1, sequence (Q16816 whole entry): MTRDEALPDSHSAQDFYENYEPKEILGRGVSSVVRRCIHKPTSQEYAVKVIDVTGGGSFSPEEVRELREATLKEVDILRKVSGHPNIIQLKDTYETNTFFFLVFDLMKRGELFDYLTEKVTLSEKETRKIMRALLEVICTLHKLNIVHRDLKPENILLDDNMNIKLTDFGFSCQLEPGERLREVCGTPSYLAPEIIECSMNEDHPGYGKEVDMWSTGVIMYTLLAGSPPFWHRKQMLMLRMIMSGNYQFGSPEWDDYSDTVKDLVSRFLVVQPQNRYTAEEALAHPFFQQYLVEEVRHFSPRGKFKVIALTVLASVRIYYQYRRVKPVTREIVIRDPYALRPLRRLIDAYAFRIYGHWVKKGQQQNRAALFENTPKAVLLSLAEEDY
T5 sequence (Q02750 whole entry): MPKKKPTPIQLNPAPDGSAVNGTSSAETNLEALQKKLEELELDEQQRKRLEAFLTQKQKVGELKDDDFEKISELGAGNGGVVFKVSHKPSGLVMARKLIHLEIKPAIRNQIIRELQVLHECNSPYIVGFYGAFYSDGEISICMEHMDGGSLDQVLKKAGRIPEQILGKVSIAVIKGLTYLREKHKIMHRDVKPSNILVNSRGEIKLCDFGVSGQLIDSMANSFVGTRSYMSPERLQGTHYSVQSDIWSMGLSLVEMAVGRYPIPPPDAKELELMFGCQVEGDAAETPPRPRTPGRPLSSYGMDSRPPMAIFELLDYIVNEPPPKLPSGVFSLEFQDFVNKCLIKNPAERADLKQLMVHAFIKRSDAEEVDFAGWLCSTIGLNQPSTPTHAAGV
T3 sequence (P45983 whole entry): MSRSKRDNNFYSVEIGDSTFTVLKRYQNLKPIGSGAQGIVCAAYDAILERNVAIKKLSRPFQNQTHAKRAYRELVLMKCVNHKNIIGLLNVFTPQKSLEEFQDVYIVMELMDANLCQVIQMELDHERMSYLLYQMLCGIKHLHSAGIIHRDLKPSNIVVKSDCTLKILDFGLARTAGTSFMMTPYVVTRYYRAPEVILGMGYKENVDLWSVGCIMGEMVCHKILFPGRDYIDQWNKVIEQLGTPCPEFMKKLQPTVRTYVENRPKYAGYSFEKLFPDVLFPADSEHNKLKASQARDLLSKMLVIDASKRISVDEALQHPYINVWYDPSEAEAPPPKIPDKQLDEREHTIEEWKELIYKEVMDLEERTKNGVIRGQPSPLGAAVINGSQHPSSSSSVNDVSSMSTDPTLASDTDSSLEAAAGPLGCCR

## CC#CC(=O)N1CC[C@@H](n2c(=O)n(-c3ccc(Oc4ccccc4)cc3)c3c(N)ncnc32)C1 [Tirabrutinib]
FLT3(R834Q); [1]
  remaining binding at 0.3 µM: 81%
IRAK3; [1]
  remaining binding at 0.3 µM: 80%
JNK1; [1]
  remaining binding at 0.3 µM: 83%
PHKG1; [1]
  remaining binding at 0.3 µM: 83%

## C=CC(=O)N1CCC[C@@H](n2nc(-c3ccc(Oc4ccccc4)cc3)c3c(N)ncnc32)C1 [Ibrutinib]
FLT3(R834Q); [2]
  remaining binding at 0.3 µM: 55%
IRAK3; [2]
  remaining binding at 0.3 µM: 86%
JNK1; [2]
  remaining binding at 0.3 µM: 96%
MLCK; [2]
  remaining binding at 0.3 µM: 79%
MEK1; [2]
  remaining binding at 0.3 µM: 91%

## C=CC(=O)N1CCC([C@@H]2CCNc3c(C(N)=O)c(-c4ccc(Oc5ccccc5)cc4)nn32)CC1 [Zanubrutinib]
FLT3(R834Q); [3]
  remaining binding at 0.3 µM: 93%
IRAK3; [3]
  remaining binding at 0.3 µM: 91%
JNK1; [3]
  remaining binding at 0.3 µM: 100%
MLCK; [3]
  remaining binding at 0.3 µM: 84%
PHKG1; [3]
  remaining binding at 0.3 µM: 67%
MEK1; [3]
  remaining binding at 0.3 µM: 4.1%

## CC#CC(=O)N1CCC[C@H]1c1nc(-c2ccc(C(=O)Nc3ccccn3)cc2)c2c(N)nccn12 [Acalabrutinib]
IRAK3; [4]
  remaining binding at 0.3 µM: 86%
JNK1; [4]
  remaining binding at 0.3 µM: 93%
MLCK; [4]
  remaining binding at 0.3 µM: 94%
PHKG1; [4]
  remaining binding at 0.3 µM: 92%
MEK1; [4]
  remaining binding at 0.3 µM: 96%
